From patent EP0846119B1, “THIENOPYRIMIDINE DERIVATIVES, THEIR PRODUCTION AND USE AS ENDOTHELIN ANTAGONISTS” (Takeda Chemical Industries, Ltd., priority 1995, dated 1997)

Assays:
[1] = molecular target: T1, human endothelin-B (ETB) receptors (Homo sapiens, UniProt P24530); test: Binding Test to ETB receptor expressed in an insect cell Sf9 ([125I]endothelin-1 displacement); conditions: Sf9 membrane fractions; [125I]endothelin-1; 25°C, 60 minutes; concentration causing PMB=50%; read-out: IC50 value: µM Human endotherin-B receptor
T1 construct: made in house; host or cells: Sf9 insect cells (membrane fractions)
T1 sequence (P24530 27-442): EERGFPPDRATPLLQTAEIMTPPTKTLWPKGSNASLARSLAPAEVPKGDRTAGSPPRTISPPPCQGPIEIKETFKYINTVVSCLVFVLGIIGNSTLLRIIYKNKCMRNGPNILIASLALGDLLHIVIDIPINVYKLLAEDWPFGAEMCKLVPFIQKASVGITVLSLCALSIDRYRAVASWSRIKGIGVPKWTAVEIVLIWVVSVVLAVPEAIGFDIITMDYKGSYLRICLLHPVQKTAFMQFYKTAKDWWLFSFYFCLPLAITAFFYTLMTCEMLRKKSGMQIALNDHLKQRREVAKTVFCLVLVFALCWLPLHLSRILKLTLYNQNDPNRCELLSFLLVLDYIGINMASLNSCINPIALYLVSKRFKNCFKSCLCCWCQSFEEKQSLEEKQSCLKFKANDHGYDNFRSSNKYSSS
Protocol: Binding Test to ETB receptor expressed in an insect cell Sf9:
(§1) Endothelin (ET) receptors were prepared by diluting fractions of insect cell (Sf9) membrane having human endothelin-B (ETB) receptors expressed, with an assay buffer {200 mM Tris-HCl, 2 mM EGTA (ethylenegiycol bis(2-aminoethylether) tetra acetic acid), 5 mM magnesium acetate, 0.1% BSA (bovine serum albumin), 0.03% NaN3, 0.5 mM PMSF(phenyl methyl sulfonyl fluoride), 20 µg/ml leupeptin, 4 µg/ml E-64 (products of the Peptide Institute), 1 µg/ml pepstatin, (pH 7.2)} respectively in a concentration of 1.4 µg/ml in the former case and 0.7 µg/ml in the latter case.
To 100 µl of each portion was added 5 nM[^125I] endothelin-1 (2 µl). A dimethylsulfoxide solution (3 µl) of the sample was added thereto and incubated at 25°C fpr 60 minutes.
And, to determine the maximum binding amount (B0) and non-specific binding amount (NSB), lots to which a dimethyl sulfoxide solution (3 µl) or a dimethyl sulfoxide solution (3 µl) containing endothelin-1 (10^-5M) had been added, were also incubated.
These lots were supplemented with 0.05% CHAPS(3-[(3-chloroamidopropyl)dimethylammonio]-1-propanesulfonate)-assay buffer (1.5 ml), subjected to filtration through a glass fiber filter GF/F (trade name; product of Whatman Ltd. (England)), and then washed with the same buffer (1.5 ml).
(§2) Radioactivity on the filter was counted in a gamma-counter to determine the Percent Maximum Binding (PMB) in accordance with the aforesaid calculation formula. The concentration causing PMB=50% was determined as IC50 value.

[2] = molecular target: T2, human endothelin-A (ETA) receptors (Homo sapiens, UniProt P25101); test: Binding Test to ETA receptor expressed in an insect cell Sf9 ([125I]endothelin-1 displacement); conditions: Sf9 membrane fractions; [125I]endothelin-1; 25°C, 60 minutes; concentration causing PMB=50%; read-out: IC50 value: µM Human endotherin-A receptor
T2 construct: made in house; host or cells: Sf9 insect cells (membrane fractions)
T2 sequence (P25101 21-427): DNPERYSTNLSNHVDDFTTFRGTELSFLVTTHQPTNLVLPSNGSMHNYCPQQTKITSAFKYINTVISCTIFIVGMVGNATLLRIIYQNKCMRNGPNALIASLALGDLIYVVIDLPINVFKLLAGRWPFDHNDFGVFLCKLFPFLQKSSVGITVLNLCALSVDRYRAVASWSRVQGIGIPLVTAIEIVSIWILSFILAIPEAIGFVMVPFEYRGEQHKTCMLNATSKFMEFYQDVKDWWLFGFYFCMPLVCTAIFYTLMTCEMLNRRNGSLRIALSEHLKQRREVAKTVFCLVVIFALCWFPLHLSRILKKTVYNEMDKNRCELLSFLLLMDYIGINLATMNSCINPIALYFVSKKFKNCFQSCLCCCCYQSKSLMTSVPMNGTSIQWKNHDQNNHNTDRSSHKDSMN
Protocol: Binding Test to ETA receptor expressed in an insect cell Sf9:
as §1, with “endothelin-A (ETA)” for “endothelin-B (ETB)”, “{20” for “{200”, “(ethyleneglycol bls(2-aminoethylether)” for “(ethylenegiycol bis(2-aminoethylether)”, “PMSF (phenyl” for “PMSF(phenyl”, “Institute, Japan),” for “Institute),”, “latte” for “latter”
To 100 µl of each portion was added 5 nM[^125I] endothelin-1 (2 µl). A dimethylsulfoxide solution (3 µl) of the test compound was added thereto and incubated at 25°C for 60 minutes.
And, to determine the maximum binding amount (B0) and non-specific binding amount (NSB), lots to which a dimethyl sulfoxide solution (3 µl) or a dimethyl sulfoxide solution (3 µl) containing endothelin-1 (10^-3M) had been added, were also incubated.
These lots were supplemented with 0.05% CHAPS(3-[(3-chloroamidopropyl)dimethylammonio]-1-propanesulfonate)-assay buffer (1.5 ml), subjected to filtration through a glass fiber filter GF/F (trade name; product of Whatman Ltd. (England)), and then washed with the same buffer (1.5 ml)).
as §2

| SMILES | IC50 [1] | IC50 [2] |
| --- | --- | --- |
| COCOc1ccc(-c2sc3c(c2CNS(=O)(=O)C(C)C)c(=O)n(CC(=O)O)c(=O)n3Cc2ccccc2SC)cc1 [11(11), 2,4(1H,3H)-Dioxo-6-(4-methoxymethoxyphenyl)-1-(2-methylthiobenzyl)-5-(isopropanesulfonamidomethyl)thieno[2,3-d]pyrimidine-3-acetic acid] | 0.09 µM | 0.0066 µM |
| CCCOc1ccc(-c2sc3c(c2CNS(C)(=O)=O)c(=O)n(CC(=O)O)c(=O)n3Cc2ccccc2SC)cc1 [11(7), 2,4(1H,3H)-Dioxo-6-(4-propoxyphenyl)-1-(2-methylthiobenzyl)-5-(methanesulfonamidomethyl)-thieno[2,3-d]pyrimidine-3-acetic acid] | 0.22 µM | 0.018 µM |
| CCCS(=O)(=O)NCc1c(-c2ccc(OCOC)cc2)sc2c1c(=O)n(CC(=O)O)c(=O)n2Cc1ccccc1SC [11(17)] | 0.047 µM | 0.022 µM |
| CCCOc1ccc(-c2sc3c(c2CNS(=O)(=O)C(C)C)c(=O)n(CC(=O)O)c(=O)n3Cc2ccccc2SC)cc1 [11(15), 2,4(1H,3H)-Dioxo-6-(4-propoxyphenyl)-1-(2-methylthiobenzyl)-5-(isopropanesulfonamidomethyl)-thieno[2,3-d]pyrimidine-3-acetic acid] | 0.094 µM | 0.011 µM |
| CCCOc1ccc(-c2sc3c(c2CNS(=O)(=O)CC)c(=O)n(CC(=O)O)c(=O)n3Cc2ccccc2SC)cc1 [11(9), 2,4(1H,3H)-Dioxo-6-(4-propoxyphenyl)-1-(2-methylthiobenzyl)-5-(ethanesulfonamidomethyl)-thieno[2,3-d]pyrimidine-3-acetic acid] | 0.11 µM | 0.015 µM |
